Laboratory results: ChEMBL document CHEMBL4507275, “Data for DCP probe BI-2545” (2021)

How the values were obtained:
[1] = target: Phosphorylase b kinase gamma catalytic chain, skeletal muscle/heart isoform (Homo sapiens) (UniProt Q16816); settings: Compound concentration 1000.0 nM
[2] = target: Testis-specific serine/threonine-protein kinase 1 (Homo sapiens) (UniProt Q9BXA7); settings: Compound concentration 1000.0 nM
[3] = target: G protein-coupled receptor kinase 3 (Homo sapiens) (UniProt P35626); settings: Compound concentration 1000.0 nM
[4] = target: cAMP-dependent protein kinase catalytic subunit PRKX (Homo sapiens) (UniProt P51817); settings: Compound concentration 1000.0 nM
[5] = target: Serine/threonine-protein kinase PLK2 (Homo sapiens) (UniProt Q9NYY3); settings: Compound concentration 1000.0 nM
[6] = target: Tyrosine-protein kinase CSK (Homo sapiens) (UniProt P41240); settings: Compound concentration 1000.0 nM
[7] = target: Serine/threonine-protein kinase MRCK beta (Homo sapiens) (UniProt Q9Y5S2); settings: Compound concentration 1000.0 nM
[8] = target: Ephrin type-B receptor 4 (Homo sapiens) (UniProt P54760); settings: Compound concentration 1000.0 nM
[9] = tested on: Tyrosine-protein kinase ABL1 (Homo sapiens), P00519 [T315I]; settings: Compound concentration 1000.0 nM
[10] = target: Interleukin-1 receptor-associated kinase 3 (Homo sapiens) (UniProt Q9Y616); settings: Compound concentration 1000.0 nM
[11] = target: Calcium/calmodulin-dependent protein kinase type 1 (Homo sapiens) (UniProt Q14012); settings: Compound concentration 1000.0 nM
[12] = target: Mu-type opioid receptor (Homo sapiens) (UniProt P35372); settings: Compound concentration 10.0 uM
[13] = target: Mitogen-activated protein kinase kinase kinase 9 (Homo sapiens) (UniProt P80192); settings: Compound concentration 1000.0 nM
[14] = target: Casein kinase I isoform gamma-2 (Homo sapiens) (UniProt P78368); settings: Compound concentration 1000.0 nM
[15] = target: Phosphatidylinositol 4,5-bisphosphate 3-kinase catalytic subunit alpha isoform (Homo sapiens) (UniProt P42336); settings: Compound concentration 1000.0 nM
[16] = target: SRSF protein kinase 3 (Homo sapiens) (UniProt Q9UPE1); settings: Compound concentration 1000.0 nM
[17] = target: Macrophage-stimulating protein receptor (Homo sapiens) (UniProt Q04912); settings: Compound concentration 1000.0 nM
[18] = target: Serine/threonine-protein kinase 17B (Homo sapiens) (UniProt O94768); settings: Compound concentration 1000.0 nM
[19] = target: T1, 5-hydroxytryptamine receptor 3A (Homo sapiens) (UniProt P46098); settings: Compound concentration 10.0 uM
T1 sequence (whole entry): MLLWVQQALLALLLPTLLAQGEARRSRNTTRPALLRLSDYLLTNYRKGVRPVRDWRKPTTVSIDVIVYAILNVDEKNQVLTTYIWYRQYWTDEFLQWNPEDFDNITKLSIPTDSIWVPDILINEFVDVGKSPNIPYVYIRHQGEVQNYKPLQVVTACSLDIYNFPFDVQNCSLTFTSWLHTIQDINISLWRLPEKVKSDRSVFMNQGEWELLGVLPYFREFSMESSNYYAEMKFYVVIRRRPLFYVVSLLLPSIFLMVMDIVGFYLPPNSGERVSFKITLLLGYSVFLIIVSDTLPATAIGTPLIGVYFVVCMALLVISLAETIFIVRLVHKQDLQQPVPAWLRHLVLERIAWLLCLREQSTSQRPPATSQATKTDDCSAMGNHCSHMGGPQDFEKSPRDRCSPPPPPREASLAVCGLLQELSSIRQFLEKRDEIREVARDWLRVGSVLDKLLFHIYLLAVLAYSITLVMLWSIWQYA

[20] = target: Ephrin type-B receptor 1 (Homo sapiens) (UniProt P54762); settings: Compound concentration 1000.0 nM
[21] = target: Ribosomal protein S6 kinase alpha-1 (Homo sapiens) (UniProt Q15418); settings: Compound concentration 1000.0 nM
[22] = target: Mitogen-activated protein kinase 1 (Homo sapiens) (UniProt P28482); settings: Compound concentration 1000.0 nM
[23] = target: Tyrosine-protein kinase ABL1 (Homo sapiens) (UniProt P00519); settings: Compound concentration 1000.0 nM
[24] = target: 3-phosphoinositide-dependent protein kinase 1 (Homo sapiens) (UniProt O15530); settings: Compound concentration 1000.0 nM
[25] = target: Mitogen-activated protein kinase 6 (Homo sapiens) (UniProt Q16659); settings: Compound concentration 1000.0 nM
[26] = target: Angiopoietin-1 receptor (Homo sapiens) (UniProt Q02763); settings: Compound concentration 1000.0 nM
[27] = target: Mitogen-activated protein kinase 8 (Homo sapiens) (UniProt P45983); settings: Compound concentration 1000.0 nM
[28] = target: Ephrin type-A receptor 2 (Homo sapiens) (UniProt P29317); settings: Compound concentration 1000.0 nM
[29] = target: Leukocyte tyrosine kinase receptor (Homo sapiens) (UniProt P29376); settings: Compound concentration 1000.0 nM
[30] = target: Serine/threonine-protein kinase DCLK3 (Homo sapiens) (UniProt Q9C098); settings: Compound concentration 1000.0 nM
[31] = target: Tyrosine-protein kinase Fer (Homo sapiens) (UniProt P16591); settings: Compound concentration 1000.0 nM
[32] = target: Dual specificity protein kinase CLK2 (Homo sapiens) (UniProt P49760); settings: Compound concentration 1000.0 nM
[33] = tested on: Epidermal growth factor receptor (Homo sapiens), P00533 [UNDEFINED MUTATION]; settings: Compound concentration 1000.0 nM
[34] = target: Serine/threonine-protein kinase RIO3 (Homo sapiens) (UniProt O14730); settings: Compound concentration 1000.0 nM
[35] = target: cAMP-dependent protein kinase catalytic subunit alpha (Homo sapiens) (UniProt P17612); settings: Compound concentration 1000.0 nM
[36] = tested on: Phosphatidylinositol 4,5-bisphosphate 3-kinase catalytic subunit alpha isoform (Homo sapiens), P42336 [H1047L]; settings: Compound concentration 1000.0 nM
[37] = target: Focal adhesion kinase 1 (Homo sapiens) (UniProt Q05397); settings: Compound concentration 1000.0 nM
[38] = target: Cyclin-dependent kinase 4 (Homo sapiens) (UniProt P11802); settings: Compound concentration 1000.0 nM
[39] = target: Mitogen-activated protein kinase kinase kinase 11 (Homo sapiens) (UniProt Q16584); settings: Compound concentration 1000.0 nM

3-phosphoinositide-dependent protein kinase 1 (Homo sapiens), sequence (O15530 whole entry): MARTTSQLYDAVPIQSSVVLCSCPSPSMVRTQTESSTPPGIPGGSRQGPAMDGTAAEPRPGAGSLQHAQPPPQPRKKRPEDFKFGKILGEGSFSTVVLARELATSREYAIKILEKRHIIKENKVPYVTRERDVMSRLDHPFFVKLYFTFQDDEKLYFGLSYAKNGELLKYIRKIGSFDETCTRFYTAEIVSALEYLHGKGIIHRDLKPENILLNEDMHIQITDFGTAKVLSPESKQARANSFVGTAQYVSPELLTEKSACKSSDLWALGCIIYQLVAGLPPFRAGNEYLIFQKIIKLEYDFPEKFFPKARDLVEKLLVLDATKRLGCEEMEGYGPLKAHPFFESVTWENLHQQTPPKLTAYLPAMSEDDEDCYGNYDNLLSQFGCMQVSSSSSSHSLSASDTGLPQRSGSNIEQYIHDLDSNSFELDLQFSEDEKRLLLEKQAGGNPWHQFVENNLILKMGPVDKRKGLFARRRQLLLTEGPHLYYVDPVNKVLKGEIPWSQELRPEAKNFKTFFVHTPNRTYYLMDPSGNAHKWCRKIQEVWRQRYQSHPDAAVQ
Serine/threonine-protein kinase MRCK beta (Homo sapiens), sequence (Q9Y5S2 whole entry): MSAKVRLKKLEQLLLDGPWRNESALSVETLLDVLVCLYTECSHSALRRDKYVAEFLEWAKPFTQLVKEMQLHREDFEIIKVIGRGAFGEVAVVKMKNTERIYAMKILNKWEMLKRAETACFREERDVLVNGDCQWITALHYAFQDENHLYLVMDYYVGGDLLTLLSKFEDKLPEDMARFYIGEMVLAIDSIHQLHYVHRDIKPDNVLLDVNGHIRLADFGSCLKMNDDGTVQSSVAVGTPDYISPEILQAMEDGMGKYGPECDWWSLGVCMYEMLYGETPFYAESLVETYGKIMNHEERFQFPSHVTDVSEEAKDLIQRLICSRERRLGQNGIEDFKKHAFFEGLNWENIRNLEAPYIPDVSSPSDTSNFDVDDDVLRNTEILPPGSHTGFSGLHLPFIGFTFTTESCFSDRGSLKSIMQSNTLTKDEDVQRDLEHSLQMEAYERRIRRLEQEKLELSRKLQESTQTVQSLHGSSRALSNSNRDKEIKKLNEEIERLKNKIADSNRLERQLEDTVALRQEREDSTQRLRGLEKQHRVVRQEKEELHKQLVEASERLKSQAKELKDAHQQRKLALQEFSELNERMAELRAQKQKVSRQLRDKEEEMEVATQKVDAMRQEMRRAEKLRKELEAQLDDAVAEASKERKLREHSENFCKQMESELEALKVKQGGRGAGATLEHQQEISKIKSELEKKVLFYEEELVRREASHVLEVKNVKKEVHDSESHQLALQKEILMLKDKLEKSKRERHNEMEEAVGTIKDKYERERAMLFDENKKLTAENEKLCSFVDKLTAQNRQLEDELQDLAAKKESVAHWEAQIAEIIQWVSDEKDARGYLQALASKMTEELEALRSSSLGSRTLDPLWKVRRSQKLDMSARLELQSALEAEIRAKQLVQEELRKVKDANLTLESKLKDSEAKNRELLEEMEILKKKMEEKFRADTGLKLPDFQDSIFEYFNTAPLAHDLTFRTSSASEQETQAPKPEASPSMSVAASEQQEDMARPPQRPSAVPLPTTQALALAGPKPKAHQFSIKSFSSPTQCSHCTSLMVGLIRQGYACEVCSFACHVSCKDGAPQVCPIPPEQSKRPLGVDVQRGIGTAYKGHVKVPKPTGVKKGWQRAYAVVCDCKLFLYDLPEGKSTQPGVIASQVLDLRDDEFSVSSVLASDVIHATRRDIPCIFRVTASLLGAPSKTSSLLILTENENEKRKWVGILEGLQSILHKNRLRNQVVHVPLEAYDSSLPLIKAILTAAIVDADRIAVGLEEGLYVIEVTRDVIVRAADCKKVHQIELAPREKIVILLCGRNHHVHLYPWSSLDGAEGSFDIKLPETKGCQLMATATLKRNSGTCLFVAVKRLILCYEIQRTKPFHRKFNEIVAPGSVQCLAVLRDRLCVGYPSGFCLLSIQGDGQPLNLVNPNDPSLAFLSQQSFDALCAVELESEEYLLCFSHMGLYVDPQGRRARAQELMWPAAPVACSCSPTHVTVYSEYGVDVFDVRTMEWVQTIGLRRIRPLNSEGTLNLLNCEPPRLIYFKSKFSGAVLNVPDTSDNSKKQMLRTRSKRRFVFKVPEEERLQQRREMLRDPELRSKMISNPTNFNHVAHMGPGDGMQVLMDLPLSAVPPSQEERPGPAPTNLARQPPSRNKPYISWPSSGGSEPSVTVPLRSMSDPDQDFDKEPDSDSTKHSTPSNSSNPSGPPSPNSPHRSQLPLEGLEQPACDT
Ephrin type-B receptor 4 (Homo sapiens), sequence (P54760 whole entry): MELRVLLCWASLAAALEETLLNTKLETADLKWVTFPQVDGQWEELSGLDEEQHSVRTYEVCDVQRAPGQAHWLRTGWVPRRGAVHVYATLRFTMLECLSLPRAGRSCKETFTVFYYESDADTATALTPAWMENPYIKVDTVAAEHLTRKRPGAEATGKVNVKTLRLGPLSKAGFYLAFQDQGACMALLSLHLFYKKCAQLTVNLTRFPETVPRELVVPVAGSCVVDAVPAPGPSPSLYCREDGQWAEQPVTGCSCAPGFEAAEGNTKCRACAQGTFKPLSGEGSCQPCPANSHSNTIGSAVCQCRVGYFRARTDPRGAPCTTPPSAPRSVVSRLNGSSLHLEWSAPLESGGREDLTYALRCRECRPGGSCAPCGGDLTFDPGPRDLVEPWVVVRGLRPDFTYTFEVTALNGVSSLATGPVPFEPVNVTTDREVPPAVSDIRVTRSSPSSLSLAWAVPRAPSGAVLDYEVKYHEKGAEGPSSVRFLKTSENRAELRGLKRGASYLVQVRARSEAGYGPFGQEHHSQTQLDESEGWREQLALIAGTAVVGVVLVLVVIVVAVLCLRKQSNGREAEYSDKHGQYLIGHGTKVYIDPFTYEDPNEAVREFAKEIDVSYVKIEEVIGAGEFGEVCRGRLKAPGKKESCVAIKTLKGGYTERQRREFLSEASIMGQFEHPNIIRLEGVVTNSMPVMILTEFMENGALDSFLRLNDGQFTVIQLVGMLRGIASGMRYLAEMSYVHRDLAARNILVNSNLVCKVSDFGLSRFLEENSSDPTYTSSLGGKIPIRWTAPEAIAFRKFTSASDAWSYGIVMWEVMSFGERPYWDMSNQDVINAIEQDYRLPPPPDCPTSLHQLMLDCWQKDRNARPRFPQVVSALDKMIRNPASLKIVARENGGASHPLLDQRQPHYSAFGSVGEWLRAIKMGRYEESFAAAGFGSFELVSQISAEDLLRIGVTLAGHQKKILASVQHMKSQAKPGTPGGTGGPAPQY
Serine/threonine-protein kinase 17B (Homo sapiens), sequence (O94768 whole entry): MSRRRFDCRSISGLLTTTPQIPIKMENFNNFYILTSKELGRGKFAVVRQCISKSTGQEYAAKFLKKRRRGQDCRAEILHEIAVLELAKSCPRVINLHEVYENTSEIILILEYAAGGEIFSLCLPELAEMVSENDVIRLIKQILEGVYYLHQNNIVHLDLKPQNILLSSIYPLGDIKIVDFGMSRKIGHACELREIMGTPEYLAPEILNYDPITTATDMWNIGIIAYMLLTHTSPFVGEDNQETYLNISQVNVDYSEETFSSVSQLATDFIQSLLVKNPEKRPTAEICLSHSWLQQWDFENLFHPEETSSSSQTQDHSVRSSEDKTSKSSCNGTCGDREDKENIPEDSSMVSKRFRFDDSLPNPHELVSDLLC
Mitogen-activated protein kinase 1 (Homo sapiens), sequence (P28482 whole entry): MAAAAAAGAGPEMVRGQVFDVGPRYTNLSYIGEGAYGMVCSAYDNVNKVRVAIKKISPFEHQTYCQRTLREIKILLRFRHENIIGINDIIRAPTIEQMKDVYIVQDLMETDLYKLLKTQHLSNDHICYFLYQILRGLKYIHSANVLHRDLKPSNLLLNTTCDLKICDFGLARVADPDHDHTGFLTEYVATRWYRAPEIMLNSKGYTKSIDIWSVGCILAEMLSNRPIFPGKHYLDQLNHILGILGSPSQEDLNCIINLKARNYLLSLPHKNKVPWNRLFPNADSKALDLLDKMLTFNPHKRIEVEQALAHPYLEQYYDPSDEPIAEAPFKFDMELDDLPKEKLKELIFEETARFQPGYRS
Cyclin-dependent kinase 4 (Homo sapiens), sequence (P11802 whole entry): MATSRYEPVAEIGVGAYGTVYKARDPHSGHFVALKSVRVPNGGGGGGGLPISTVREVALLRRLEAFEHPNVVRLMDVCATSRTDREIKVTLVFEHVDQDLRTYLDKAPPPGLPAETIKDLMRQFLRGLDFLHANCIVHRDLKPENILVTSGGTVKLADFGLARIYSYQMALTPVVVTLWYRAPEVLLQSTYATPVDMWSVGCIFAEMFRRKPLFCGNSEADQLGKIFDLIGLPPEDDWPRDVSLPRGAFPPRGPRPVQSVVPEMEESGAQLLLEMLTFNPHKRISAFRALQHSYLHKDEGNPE
Phosphorylase b kinase gamma catalytic chain, skeletal muscle/heart isoform (Homo sapiens), sequence (Q16816 whole entry, looked up, canonical isoform): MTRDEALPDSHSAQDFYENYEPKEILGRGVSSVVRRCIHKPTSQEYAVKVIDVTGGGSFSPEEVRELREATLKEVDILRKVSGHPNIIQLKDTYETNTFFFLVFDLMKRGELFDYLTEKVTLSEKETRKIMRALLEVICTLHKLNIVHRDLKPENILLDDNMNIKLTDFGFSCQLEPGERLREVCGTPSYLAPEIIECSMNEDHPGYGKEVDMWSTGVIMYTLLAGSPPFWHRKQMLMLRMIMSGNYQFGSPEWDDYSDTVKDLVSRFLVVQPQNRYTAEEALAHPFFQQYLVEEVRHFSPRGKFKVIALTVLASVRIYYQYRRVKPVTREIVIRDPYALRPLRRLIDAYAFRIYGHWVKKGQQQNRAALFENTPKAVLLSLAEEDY
Calcium/calmodulin-dependent protein kinase type 1 (Homo sapiens), sequence (Q14012 whole entry, looked up): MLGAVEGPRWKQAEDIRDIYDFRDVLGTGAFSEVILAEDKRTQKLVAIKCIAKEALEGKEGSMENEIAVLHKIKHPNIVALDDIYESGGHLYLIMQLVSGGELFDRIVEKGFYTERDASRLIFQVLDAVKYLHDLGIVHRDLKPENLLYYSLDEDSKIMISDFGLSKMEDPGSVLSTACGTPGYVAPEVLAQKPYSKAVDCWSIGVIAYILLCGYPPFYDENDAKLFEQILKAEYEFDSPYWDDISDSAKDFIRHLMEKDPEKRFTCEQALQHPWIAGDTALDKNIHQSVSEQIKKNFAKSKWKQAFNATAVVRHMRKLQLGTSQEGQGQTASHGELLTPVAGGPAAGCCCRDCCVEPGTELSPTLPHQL

O=C(NC[C@@H]1[C@H]2CN(C(=O)OCc3cc(C(F)(F)F)cc(C(F)(F)F)c3)C[C@@H]12)c1ccc2[nH]nnc2c1 [BI 2545]
inactive: residual activity [1] 92% | residual activity [2] 100% | residual activity [3] 90% | residual activity [4] 86% | residual activity [5] 89% | residual activity [6] 96% | residual activity [7] 100% | residual activity [8] 100% | residual activity [9] 93% | residual activity [10] 84% | residual activity [11] 77% | inhibition [12] 43% | residual activity [13] 100% | residual activity [14] 100% | residual activity [15] 74% | residual activity [16] 100% | residual activity [17] 100% | residual activity [18] 91% | inhibition [19] 8.82% | residual activity [20] 100% | residual activity [21] 94% | residual activity [22] 100% | residual activity [23] 100% | residual activity [24] 96% | residual activity [25] 88% | residual activity [26] 89% | residual activity [27] 90% | residual activity [28] 79% | residual activity [29] 98% | residual activity [30] 100% | residual activity [31] 97% | residual activity [32] 86% | residual activity [33] 89% | residual activity [34] 94% | residual activity [35] 100% | residual activity [36] 100% | residual activity [37] 100% | residual activity [38] 97% | residual activity [39] 99%

Cc1nccc(COC(=O)N2C[C@@H]3[C@@H](CNC(=O)c4ccc5[nH]nnc5c4)[C@@H]3C2)n1 [BI 3017]
inactive: residual activity [1] 100% | residual activity [2] 91% | residual activity [3] 70% | residual activity [4] 100% | residual activity [5] 82% | residual activity [6] 99% | residual activity [7] 82% | residual activity [8] 100% | residual activity [9] 95% | residual activity [10] 100% | residual activity [11] 93% | inhibition [12] 12.1% | residual activity [13] 89% | residual activity [14] 96% | residual activity [15] 92% | residual activity [16] 100% | residual activity [17] 100% | residual activity [18] 85% | inhibition [19] 16.4% | residual activity [20] 95% | residual activity [21] 98% | residual activity [22] 100% | residual activity [23] 95% | residual activity [24] 100% | residual activity [25] 93% | residual activity [26] 90% | residual activity [27] 84% | residual activity [28] 92% | residual activity [29] 93% | residual activity [30] 100% | residual activity [31] 100% | residual activity [32] 80% | residual activity [33] 71% | residual activity [34] 100% | residual activity [35] 88% | residual activity [36] 79% | residual activity [37] 100% | residual activity [38] 78% | residual activity [39] 100%
